Assay: xn = mol fraction of the nth substance listed
Conditions: 100 kPa, Liquid, Vibrating tube method

CCC(O)CC [3-pentanol] + C[N+](=O)[O-]
Conditions | mass density [kg/m3]
286.95 K, x1 = 0.629 | 904.586
287.05 K, x1 = 0.629 | 904.424
287.15 K, x1 = 0.629 | 904.324
287.25 K, x1 = 0.629 | 904.302
287.35 K, x1 = 0.629 | 904.234
287.45 K, x1 = 0.629 | 904.174
287.55 K, x1 = 0.629 | 904.105
287.66 K, x1 = 0.629 | 904.02
287.75 K, x1 = 0.629 | 903.747
287.86 K, x1 = 0.629 | 903.73
287.96 K, x1 = 0.629 | 903.653
288.06 K, x1 = 0.629 | 903.559
288.16 K, x1 = 0.629 | 903.339
288.26 K, x1 = 0.629 | 903.249
288.36 K, x1 = 0.629 | 903.208
288.46 K, x1 = 0.629 | 903.194
288.56 K, x1 = 0.629 | 903.023
288.66 K, x1 = 0.629 | 902.916
288.75 K, x1 = 0.629 | 902.883
288.86 K, x1 = 0.629 | 902.656
288.95 K, x1 = 0.629 | 902.639
289.06 K, x1 = 0.629 | 902.563
289.15 K, x1 = 0.246 | 1016.83
289.15 K, x1 = 0.266 | 1014.93
289.15 K, x1 = 0.275 | 1013.85
289.15 K, x1 = 0.3 | 1007.8
289.15 K, x1 = 0.325 | 1002.84
289.15 K, x1 = 0.338 | 1001.68
289.15 K, x1 = 0.363 | 999.874
289.15 K, x1 = 0.382 | 999.889
289.15 K, x1 = 0.407 | 999.35
289.15 K, x1 = 0.486 | 980.562
289.15 K, x1 = 0.488 | 978.895
289.15 K, x1 = 0.546 | 955.829
289.15 K, x1 = 0.573 | 937.786
289.15 K, x1 = 0.615 | 911.044
289.15 K, x1 = 0.629 | 902.484
289.16 K, x1 = 0.587 | 928.424
289.25 K, x1 = 0.246 | 1015.69
289.25 K, x1 = 0.266 | 1014.12
289.25 K, x1 = 0.275 | 1013.22
289.25 K, x1 = 0.3 | 1007.17
289.25 K, x1 = 0.325 | 1002.28
289.25 K, x1 = 0.338 | 1000.75
289.25 K, x1 = 0.363 | 998.168
289.25 K, x1 = 0.382 | 998.358
289.25 K, x1 = 0.407 | 997.887
289.25 K, x1 = 0.414 | 998.161
289.25 K, x1 = 0.486 | 979.734
289.25 K, x1 = 0.488 | 978.223
289.25 K, x1 = 0.546 | 953.328
289.25 K, x1 = 0.573 | 937.432
289.25 K, x1 = 0.587 | 924.098
289.25 K, x1 = 0.629 | 902.36
289.26 K, x1 = 0.615 | 910.892
289.35 K, x1 = 0.3 | 1006.58
289.35 K, x1 = 0.338 | 999.725
289.36 K, x1 = 0.246 | 1014.41
289.36 K, x1 = 0.266 | 1013.24
289.36 K, x1 = 0.275 | 1012.41
289.36 K, x1 = 0.325 | 1001.72
289.36 K, x1 = 0.363 | 996.975
289.36 K, x1 = 0.382 | 996.614
289.36 K, x1 = 0.407 | 996.236
289.36 K, x1 = 0.414 | 996.775
289.36 K, x1 = 0.486 | 978.988
289.36 K, x1 = 0.488 | 977.267
289.36 K, x1 = 0.546 | 952.752
289.36 K, x1 = 0.573 | 936.899
289.36 K, x1 = 0.587 | 923.859
289.36 K, x1 = 0.615 | 909.942
289.36 K, x1 = 0.629 | 902.109
289.45 K, x1 = 0.246 | 1013.13
289.45 K, x1 = 0.266 | 1012.22
289.45 K, x1 = 0.275 | 1011.52
289.45 K, x1 = 0.3 | 1005.82
289.45 K, x1 = 0.325 | 1001.04
289.45 K, x1 = 0.338 | 998.278
289.45 K, x1 = 0.363 | 996.016
289.45 K, x1 = 0.382 | 994.795
289.45 K, x1 = 0.407 | 994.989
289.45 K, x1 = 0.414 | 995.114
289.45 K, x1 = 0.486 | 977.635
289.45 K, x1 = 0.488 | 975.638
289.45 K, x1 = 0.546 | 951.819
289.45 K, x1 = 0.573 | 936.914
289.45 K, x1 = 0.587 | 923.684
289.45 K, x1 = 0.629 | 901.973
289.46 K, x1 = 0.615 | 903.573
289.55 K, x1 = 0.266 | 1011
289.55 K, x1 = 0.3 | 1005.09
289.55 K, x1 = 0.325 | 1000.44
289.55 K, x1 = 0.407 | 993.27
289.55 K, x1 = 0.486 | 976.784
289.55 K, x1 = 0.546 | 950.242
289.55 K, x1 = 0.573 | 934.004
289.55 K, x1 = 0.629 | 901.33
289.56 K, x1 = 0.246 | 1011.83
289.56 K, x1 = 0.275 | 1010.74
289.56 K, x1 = 0.338 | 998.17
289.56 K, x1 = 0.363 | 995.361
289.56 K, x1 = 0.382 | 993.579
289.56 K, x1 = 0.414 | 993.6
289.56 K, x1 = 0.488 | 974.397
289.56 K, x1 = 0.587 | 923.551
289.56 K, x1 = 0.615 | 903.035
289.65 K, x1 = 0.246 | 1010.76
289.65 K, x1 = 0.266 | 1009.81
289.65 K, x1 = 0.275 | 1009.82
289.65 K, x1 = 0.3 | 1004.38
289.65 K, x1 = 0.325 | 999.918
289.65 K, x1 = 0.363 | 994.656
289.65 K, x1 = 0.382 | 992.659
289.65 K, x1 = 0.407 | 991.642
289.65 K, x1 = 0.414 | 991.992
289.65 K, x1 = 0.486 | 975.844
289.65 K, x1 = 0.488 | 973.516
289.65 K, x1 = 0.546 | 949.056
289.65 K, x1 = 0.573 | 932.207
289.65 K, x1 = 0.587 | 923.409
289.65 K, x1 = 0.615 | 903.013
289.65 K, x1 = 0.629 | 896.019
289.66 K, x1 = 0.338 | 997.588
289.75 K, x1 = 0.246 | 1009.91
289.75 K, x1 = 0.266 | 1008.57
289.75 K, x1 = 0.275 | 1008.78
289.75 K, x1 = 0.3 | 1003.47
289.75 K, x1 = 0.325 | 999.093
289.75 K, x1 = 0.363 | 994.035
289.75 K, x1 = 0.382 | 991.551
289.75 K, x1 = 0.407 | 989.735
289.75 K, x1 = 0.414 | 990.174
289.75 K, x1 = 0.486 | 974.653
289.75 K, x1 = 0.488 | 972.561
289.75 K, x1 = 0.546 | 947.686
289.75 K, x1 = 0.573 | 929.383
289.75 K, x1 = 0.587 | 924.024
289.75 K, x1 = 0.615 | 902.898
289.76 K, x1 = 0.338 | 996.84
289.85 K, x1 = 0.266 | 1007.2
289.85 K, x1 = 0.275 | 1007.7
289.85 K, x1 = 0.3 | 1002.58
289.85 K, x1 = 0.325 | 998.305
289.85 K, x1 = 0.363 | 993.362
289.85 K, x1 = 0.382 | 990.377
289.85 K, x1 = 0.407 | 988.132
289.85 K, x1 = 0.414 | 988.452
289.85 K, x1 = 0.486 | 973.161
289.85 K, x1 = 0.488 | 971.375
289.85 K, x1 = 0.546 | 946.847
289.85 K, x1 = 0.573 | 928.807
289.85 K, x1 = 0.587 | 917.506
289.86 K, x1 = 0.246 | 1009.43
289.86 K, x1 = 0.338 | 996.331
289.86 K, x1 = 0.615 | 902.789
289.95 K, x1 = 0.266 | 1005.77
289.95 K, x1 = 0.275 | 1006.41

— the NIST ThermoML archive (doi:10.1016/j.jct.2018.08.035)
